Patent publication US11491158B2, “N-(substituted-phenyl)-sulfonamide derivatives as kinase inhibitors” (Nerviano Medical Sciences S.R.L., priority 2016, dated 2022)

Target: PERK recombinant enzyme (cytoplasmic domain corresponding to residues 540-1115) (Homo sapiens (Human), UniProt Q9NZJ5)
Experiment: PERK enzyme assay, Method 1: ADP-Glo Kinase Assay (quantification of ADP formed)
Type: biochemical
Conditions: 52 microM ATP, 8 nM PERK, 300 microM elF2alpha peptide substrate, 60 minutes
Protocol: The biochemical activity of compounds was determined by incubation with PERK recombinant enzyme (cytoplasmic domain corresponding to residues 540-1115) and elF2alpha peptide substrate (Aminoacid sequence: LLSELSRRRIRSINK—SEQ ID Nr: 1; purchased from American Peptide Company, product #341923). This was followed by:
Method 1: Quantification of the ADP Formed from the Kinase Reaction by ADP-Glo™ Kinase Assay (Promega Cat. 9102). Utra Pure ATP was Included into ADP-Glo™ Kinase Assay Kit. […]
After 60 minutes, an equal volume (15 microL) of ADP-Glo™ Reagent was added to each well to terminate the kinase reaction and deplete the remaining ATP. After 40 minutes, 30 microL of Kinase Detection Reagent is added, which simultaneously converts ADP to ATP and allows the newly synthesized ATP to be measured using a coupled luciferase/luciferin reaction. After further 40 minutes luminescence was read by ViewLux Instrument (Perkin Elmer). The data are analyzed by GraphPad Prism software which provides sigmoidal fittings of the curves for IC50 determination using a 4 parameter logistic equation: y=bottom+(top−bottom)/(1+10^((log IC50−x)*slope)) where x is the logarithm of the inhibitor concentration, y is the response; y starts at bottom and goes to top with a sigmoid shape. Method 2: Quantification of the Phosphorylated Product Formed from the Kinase Reaction in Presence of ATP (Aldrich, Cat #A2620-9).

PERK recombinant enzyme (cytoplasmic domain corresponding to residues 540-1115), sequence (Q9NZJ5 540-1115): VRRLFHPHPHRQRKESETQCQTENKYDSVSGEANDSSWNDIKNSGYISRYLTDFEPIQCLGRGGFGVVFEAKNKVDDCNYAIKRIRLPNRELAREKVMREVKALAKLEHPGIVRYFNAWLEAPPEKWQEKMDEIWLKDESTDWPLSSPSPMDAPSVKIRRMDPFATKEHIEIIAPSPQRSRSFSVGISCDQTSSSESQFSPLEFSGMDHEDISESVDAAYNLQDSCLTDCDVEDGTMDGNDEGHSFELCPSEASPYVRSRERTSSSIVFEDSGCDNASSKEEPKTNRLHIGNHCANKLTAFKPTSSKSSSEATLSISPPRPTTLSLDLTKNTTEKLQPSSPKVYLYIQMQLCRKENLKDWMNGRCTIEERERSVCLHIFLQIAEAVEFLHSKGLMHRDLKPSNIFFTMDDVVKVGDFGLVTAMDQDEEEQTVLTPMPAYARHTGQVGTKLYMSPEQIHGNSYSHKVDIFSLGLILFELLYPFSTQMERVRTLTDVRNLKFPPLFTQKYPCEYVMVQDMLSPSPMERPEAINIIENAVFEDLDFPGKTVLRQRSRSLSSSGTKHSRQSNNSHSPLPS

COc1ccc(S(=O)(=O)Nc2cccc(-c3csc4ccnc(N)c34)c2F)cc1C [Cmpd 60, N-[3-(4-Amino-thieno[3,2-c]pyridin-3-yl)-2-fluoro-phenyl]-4-methoxy-3-methyl-benzenesulfonamide]
pIC50: C (pIC50 < 6.8)
